Results: PubChem BioAssay AID212 (DTP/NCI, 2004)
“And” between values parts separate entries of the source, which are not always exact repeats. Equal entries are not always repeated. Results filed as inconclusive are left out.

System: BDF1 mice, colon carcinoma 38 sc, T/C %
Test: NCI In Vivo Anticancer Drug Screen. Data for tumor model Colon Carcinoma 38 (subcutaneous) in B6D2F1 (BDF1) mice
How it was run: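 T/C readout: treated group (T) measurement over vehicle control group (C) measurement. Endpoint is survival or tumor size in mice bearing a transplanted tumor.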

[1] = endpoint: median tumor weight (est.), dose: 12.5 mg/kg/injection, schedule: Q07DX002 (ip), vehicle: Klucel (hydroxypropylcellulose) (HPC), higher = larger tumour
[2] = endpoint: median tumor weight (est.), dose: 25.0 mg/kg/injection, schedule: Q07DX002 (ip), vehicle: Klucel (hydroxypropylcellulose) (HPC), higher = larger tumour
[3] = endpoint: median tumor weight (est.), dose: 100.0 mg/kg/injection, schedule: Q07DX002 (ip), vehicle: Klucel (hydroxypropylcellulose) (HPC), higher = larger tumour

CCOC(=O)CC(SP(=S)(OC)OC)C(=O)OCC (stereo unspecified)
T/C (endpoint: median tumor weight (est.), dose: 50.0 mg/kg/injection, schedule: Q07DX002 (ip), vehicle: suspension in saline, higher = larger tumour): 114 % of control
T/C (endpoint: median tumor weight (est.), dose: 56.0 mg/kg/injection, schedule: Q07DX002 (ip), vehicle: saline with Tween-80, higher = larger tumour): 67 % of control
T/C (endpoint: median tumor weight (est.), dose: 100.0 mg/kg/injection, schedule: Q07DX002 (ip), vehicle: suspension in saline, higher = larger tumour): 119 % of control
T/C (endpoint: median tumor weight (est.), dose: 112.0 mg/kg/injection, schedule: Q07DX002 (ip), vehicle: saline with Tween-80, higher = larger tumour): 102 % of control
T/C (endpoint: median tumor weight (est.), dose: 200.0 mg/kg/injection, schedule: Q07DX002 (ip), vehicle: suspension in saline, higher = larger tumour): 49 % of control
T/C (endpoint: median tumor weight (est.), dose: 225.0 mg/kg/injection, schedule: Q07DX002 (ip), vehicle: saline with Tween-80, higher = larger tumour): 88 % of control
T/C (endpoint: median tumor weight (est.), dose: 400.0 mg/kg/injection, schedule: Q07DX002 (ip), vehicle: suspension in saline, higher = larger tumour): 69 % of control

CC1OC(=O)C(C(C)C)NC(=O)C(C(C)C)OC(=O)C(C(C)C)NC(=O)C(C)OC(=O)C(C(C)C)NC(=O)C(C(C)C)OC(=O)C(C(C)C)NC(=O)C(C)OC(=O)C(C(C)C)NC(=O)C(C(C)C)OC(=O)C(C(C)C)NC1=O (stereo unspecified)
T/C (endpoint: median tumor weight (est.), dose: 2.5 mg/kg/injection, schedule: Q07DX003 (ip), vehicle: saline with Tween-80, higher = larger tumour): 71 % of control and 90 % of control
T/C (endpoint: median tumor weight (est.), dose: 5.0 mg/kg/injection, schedule: Q07DX003 (ip), vehicle: saline with Tween-80, higher = larger tumour): 79 % of control
T/C (endpoint: median tumor weight (est.), dose: 40.0 mg/kg/injection, schedule: Q07DX003 (ip), vehicle: saline with Tween-80, higher = larger tumour): 37 % of control

CCc1c(CC(=O)O)c2cc(C)ccc2n1Cc1ccc(Cl)cc1
T/C (endpoint: median tumor weight (est.), dose: 3.13 mg/kg/injection, schedule: Q07DX002 (ip), vehicle: Klucel (hydroxypropylcellulose) (HPC), higher = larger tumour): 107 % of control
T/C (endpoint: median tumor weight (est.), dose: 6.25 mg/kg/injection, schedule: Q07DX002 (ip), vehicle: Klucel (hydroxypropylcellulose) (HPC), higher = larger tumour): 45 % of control
T/C (endpoint: median tumor weight (est.), dose: 6.25 mg/kg/injection, schedule: Q07DX003 (ip), vehicle: Klucel (hydroxypropylcellulose) (HPC), higher = larger tumour): 72 % of control
T/C [1]: 76 % of control
T/C (endpoint: median tumor weight (est.), dose: 12.5 mg/kg/injection, schedule: Q07DX003 (ip), vehicle: Klucel (hydroxypropylcellulose) (HPC), higher = larger tumour): 74 % of control
T/C [2]: 60 % of control
T/C (endpoint: median tumor weight (est.), dose: 25.0 mg/kg/injection, schedule: Q07DX003 (ip), vehicle: Klucel (hydroxypropylcellulose) (HPC), higher = larger tumour): 97 % of control
T/C (endpoint: median tumor weight (est.), dose: 50.0 mg/kg/injection, schedule: Q07DX002 (ip), vehicle: Klucel (hydroxypropylcellulose) (HPC), higher = larger tumour): 98 % of control
T/C (endpoint: median tumor weight (est.), dose: 50.0 mg/kg/injection, schedule: Q07DX003 (ip), vehicle: Klucel (hydroxypropylcellulose) (HPC), higher = larger tumour): 116 % of control
T/C [3]: 159 % of control
T/C (endpoint: median tumor weight (est.), dose: 100.0 mg/kg/injection, schedule: Q07DX003 (ip), vehicle: Klucel (hydroxypropylcellulose) (HPC), higher = larger tumour): 120 % of control
T/C (endpoint: median tumor weight (est.), dose: 200.0 mg/kg/injection, schedule: Q07DX003 (ip), vehicle: Klucel (hydroxypropylcellulose) (HPC), higher = larger tumour): 48 % of control

CCCCCCCCCCCC(=O)NC1CC(O[C@H]2C[C@](O)(C(=O)CO)Cc3c(O)c4c(c(O)c32)C(=O)c2c(OC)cccc2C4=O)OC(C)C1O (stereo partly specified)
T/C (endpoint: median survival time, dose: 17.0 mg/kg/injection, schedule: Q07DX003 (iv), vehicle: saline, higher = longer survival): 97 % of control
T/C (endpoint: median survival time, dose: 43.0 mg/kg/injection, schedule: Q07DX003 (iv), vehicle: saline, higher = longer survival): 123 % of control
T/C (endpoint: median survival time, dose: 70.0 mg/kg/injection, schedule: Q07DX003 (iv), vehicle: saline, higher = longer survival): 103 % of control
T/C (endpoint: median tumor weight (est.), dose: 28.7 mg/kg/injection, schedule: Q07DX002 (ip), vehicle: distilled water + Tween-80, higher = larger tumour): 96 % of control
T/C (endpoint: median tumor weight (est.), dose: 56.3 mg/kg/injection, schedule: Q07DX002 (ip), vehicle: distilled water + Tween-80, higher = larger tumour): 101 % of control

COC(=O)C(F)C(Br)C(=O)OC (stereo unspecified)
T/C (endpoint: median tumor weight (est.), dose: 6.25 mg/kg/injection, schedule: Q07DX002 (ip), vehicle: saline with Tween-80, higher = larger tumour): 95 % of control and 99 % of control
T/C (endpoint: median tumor weight (est.), dose: 12.5 mg/kg/injection, schedule: Q07DX002 (ip), vehicle: saline with Tween-80, higher = larger tumour): 63 % of control

C#CCN(Cc1ccc2nc(N)[nH]c(=O)c2c1)c1ccc(C(=O)NC(CCC(=O)O)C(=O)O)cc1 (stereo unspecified)
T/C (endpoint: median tumor weight (est.), dose: 50.0 mg/kg/injection, schedule: Q07DX002 (ip), vehicle: sodium bicarbonate, higher = larger tumour): 60 % of control
T/C (endpoint: median tumor weight (est.), dose: 100.0 mg/kg/injection, schedule: Q07DX002 (ip), vehicle: sodium bicarbonate, higher = larger tumour): 70 % of control
T/C (endpoint: median tumor weight (est.), dose: 200.0 mg/kg/injection, schedule: Q07DX002 (ip), vehicle: sodium bicarbonate, higher = larger tumour): 49 % of control
T/C (endpoint: median tumor weight (est.), dose: 400.0 mg/kg/injection, schedule: Q07DX002 (ip), vehicle: sodium bicarbonate, higher = larger tumour): 51 % of control

CCn1cnc2c(=S)nc[nH]c21
T/C (endpoint: median tumor weight (est.), dose: 25.0 mg/kg/injection, schedule: Q07DX002 (ip), vehicle: saline with Tween-80, higher = larger tumour): 87 % of control
T/C (endpoint: median tumor weight (est.), dose: 50.0 mg/kg/injection, schedule: Q07DX002 (ip), vehicle: saline with Tween-80, higher = larger tumour): 64 % of control
T/C (endpoint: median tumor weight (est.), dose: 100.0 mg/kg/injection, schedule: Q07DX002 (ip), vehicle: saline with Tween-80, higher = larger tumour): 57 % of control
T/C (endpoint: median tumor weight (est.), dose: 200.0 mg/kg/injection, schedule: Q07DX002 (ip), vehicle: saline with Tween-80, higher = larger tumour): 21 % of control

CC(C)(C)C1CCCCC1
T/C [1]: 100 % of control
T/C [2]: 124 % of control
T/C [3]: 104 % of control
T/C (endpoint: median tumor weight (est.), dose: 200.0 mg/kg/injection, schedule: Q07DX002 (ip), vehicle: Klucel (hydroxypropylcellulose) (HPC), higher = larger tumour): 77 % of control
